From ChEMBL document CHEMBL1149733, “Antitumor agents, 130, Novel 4 beta-arylamino derivatives of 3',4'-didemethoxy-3',4'-dioxo-4-deoxypodophyllotoxin as potent inhibitors of human DNA topoisomerase II” (1992)
pIC50: −log10 of the molar value.

Key:
KB = test: Cytotoxicity against human KB cells assessed as reduction in cell number after 3 days; assay type: functional; conditions: 72 h, read-out: ID50 (the source's name)
[1] = molecular target: DNA topoisomerase 2-alpha (Homo sapiens) (UniProt P11388); test: Inhibition of human DNA topoisomerase 2
Sequence of DNA topoisomerase 2-alpha (Homo sapiens) (P11388 whole entry): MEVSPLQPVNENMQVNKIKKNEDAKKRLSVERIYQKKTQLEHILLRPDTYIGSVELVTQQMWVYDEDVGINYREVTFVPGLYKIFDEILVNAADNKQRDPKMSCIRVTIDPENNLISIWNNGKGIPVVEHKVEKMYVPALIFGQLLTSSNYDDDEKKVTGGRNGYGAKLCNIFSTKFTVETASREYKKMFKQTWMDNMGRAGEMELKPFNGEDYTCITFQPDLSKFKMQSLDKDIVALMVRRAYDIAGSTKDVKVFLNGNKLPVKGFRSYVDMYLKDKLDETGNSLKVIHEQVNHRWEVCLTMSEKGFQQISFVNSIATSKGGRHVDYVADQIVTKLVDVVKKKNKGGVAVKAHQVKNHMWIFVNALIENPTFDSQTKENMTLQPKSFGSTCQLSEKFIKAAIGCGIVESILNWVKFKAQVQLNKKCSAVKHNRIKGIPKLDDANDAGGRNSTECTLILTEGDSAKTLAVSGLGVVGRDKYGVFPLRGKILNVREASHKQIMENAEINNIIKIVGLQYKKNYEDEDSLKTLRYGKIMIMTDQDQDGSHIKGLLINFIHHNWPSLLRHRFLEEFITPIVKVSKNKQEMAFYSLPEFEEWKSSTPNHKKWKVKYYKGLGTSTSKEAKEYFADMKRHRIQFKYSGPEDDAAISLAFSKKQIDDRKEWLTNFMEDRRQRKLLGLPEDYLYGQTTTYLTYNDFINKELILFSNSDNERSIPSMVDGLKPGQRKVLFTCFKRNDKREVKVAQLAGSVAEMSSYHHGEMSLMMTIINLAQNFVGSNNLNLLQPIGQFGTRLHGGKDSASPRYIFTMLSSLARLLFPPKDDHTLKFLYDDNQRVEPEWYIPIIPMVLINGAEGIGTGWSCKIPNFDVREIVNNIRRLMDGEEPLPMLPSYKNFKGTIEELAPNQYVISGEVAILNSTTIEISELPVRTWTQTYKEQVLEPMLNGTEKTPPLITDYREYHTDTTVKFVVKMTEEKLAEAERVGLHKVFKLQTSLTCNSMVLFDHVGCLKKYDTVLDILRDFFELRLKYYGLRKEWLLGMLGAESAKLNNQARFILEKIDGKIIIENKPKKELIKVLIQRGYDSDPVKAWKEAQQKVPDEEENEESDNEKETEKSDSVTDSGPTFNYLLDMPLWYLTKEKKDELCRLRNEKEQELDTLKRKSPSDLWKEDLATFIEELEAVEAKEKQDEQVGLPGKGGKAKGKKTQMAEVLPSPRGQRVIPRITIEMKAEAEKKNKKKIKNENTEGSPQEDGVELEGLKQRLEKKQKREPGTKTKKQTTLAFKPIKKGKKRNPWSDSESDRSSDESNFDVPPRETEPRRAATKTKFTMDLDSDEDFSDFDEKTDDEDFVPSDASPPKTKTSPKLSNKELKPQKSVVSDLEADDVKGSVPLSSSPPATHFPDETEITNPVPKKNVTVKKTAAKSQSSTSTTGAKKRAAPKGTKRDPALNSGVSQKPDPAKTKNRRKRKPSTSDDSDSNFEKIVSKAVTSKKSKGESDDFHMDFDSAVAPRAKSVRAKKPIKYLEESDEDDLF

[2] = molecular target: DNA topoisomerase 2-alpha (Homo sapiens) (UniProt P11388); test: Inhibition of strand rejoining activity of human DNA topoisomerase 2 assessed as protein-DNA complex formation at 20 uM by cell-based assay; parameters: scale not given: the % may be the effect or the level left
[3] = molecular target: DNA topoisomerase 2-alpha (Homo sapiens) (UniProt P11388); test: Inhibition of strand rejoining activity of human DNA topoisomerase 2 assessed as protein-DNA complex formation at 10 uM by cell-based assay; parameters: scale not given: the % may be the effect or the level left

Compound | pIC50 (KB) | ID50 [1] [µM] | Activity [2] [%] | Activity [3] [%]
COC(=O)c1ccc(N[C@@H]2c3cc4c(cc3[C@@H](C3=CC(=O)C(=O)C(OC)=C3)[C@H]3C(=O)OC[C@@H]32)OCO4)cc1O | 5.72 | 100 | 47 | 
COC(=O)c1cccc(N[C@@H]2c3cc4c(cc3[C@@H](c3cc(OC)c(O)c(OC)c3)[C@H]3C(=O)OC[C@@H]32)OCO4)c1 | 5.57 | 50 |  | 129
COc1cc([C@@H]2c3cc4c(cc3[C@@H](Nc3cc(C(F)(F)F)cc(C(F)(F)F)c3)[C@H]3COC(=O)[C@H]23)OCO4)cc(OC)c1O | 5.47 | > 100 |  | 21
COc1cc([C@@H]2c3cc4c(cc3[C@@H](Nc3cccc(F)c3)[C@H]3COC(=O)[C@H]23)OCO4)cc(OC)c1O |  | 50 |  | 158
COc1cc([C@@H]2c3cc4c(cc3[C@@H](Nc3ccccc3F)[C@H]3COC(=O)[C@H]23)OCO4)cc(OC)c1O |  |  |  | 121
COC1=CC([C@@H]2c3cc4c(cc3[C@@H](Nc3ccc(C(C)=O)cc3)[C@H]3COC(=O)[C@@H]32)OCO4)=CC(=O)C1=O | 5.82 | 50 | 69 | 
COC(=O)c1cccc(N[C@@H]2c3cc4c(cc3[C@@H](C3=CC(=O)C(=O)C(OC)=C3)[C@H]3C(=O)OC[C@@H]32)OCO4)c1 | 5.92 | 100 | 67 | 
COC1=CC([C@@H]2c3cc4c(cc3[C@@H](Nc3ccc(Cl)cc3)[C@H]3COC(=O)[C@@H]32)OCO4)=CC(=O)C1=O | < 5.40 | 25 | 27 | 
COC1=CC([C@@H]2c3cc4c(cc3[C@@H](Nc3ccc(F)cc3)[C@H]3COC(=O)[C@@H]32)OCO4)=CC(=O)C1=O | 5.89 | 25 | 92 | 
COC1=CC([C@@H]2c3cc4c(cc3[C@@H](Nc3ccccc3F)[C@H]3COC(=O)[C@@H]32)OCO4)=CC(=O)C1=O | 5.92 | 100 | 29 | 
COC1=CC([C@@H]2c3cc4c(cc3[C@@H](Nc3cc([N+](=O)[O-])cc([N+](=O)[O-])c3)[C@H]3COC(=O)[C@@H]32)OCO4)=CC(=O)C1=O | 5.74 | 50 | 32 | 
COc1cc([C@@H]2c3cc4c(cc3[C@@H](Oc3ccc(F)cc3)[C@H]3COC(=O)[C@H]23)OCO4)cc(OC)c1O | 6.30 | > 100 |  | 57
COC1=CC([C@@H]2c3cc4c(cc3[C@H](O)[C@H]3COC(=O)[C@@H]32)OCO4)=CC(=O)C1=O | 5.72 | 10 | 4 | 
COc1cc([C@@H]2c3cc4c(cc3[C@@H](Nc3cncc5ccccc35)[C@H]3COC(=O)[C@H]23)OCO4)cc(OC)c1O | > 6.00 | 50 |  | 123
CCOC(=O)c1ccccc1N[C@@H]1c2cc3c(cc2[C@@H](C2=CC(=O)C(=O)C(OC)=C2)[C@H]2C(=O)OC[C@@H]21)OCO3 | 5.15 | 100 | 4 | 
COc1cc([C@@H]2c3cc4c(cc3[C@@H](Nc3ccc(F)cc3)[C@H]3COC(=O)[C@H]23)OCO4)cc(O)c1O | 5.82 | 10 | 117 | 
COC1=CC([C@@H]2c3cc4c(cc3[C@@H](Nc3cc(F)cc(F)c3)[C@H]3COC(=O)[C@@H]32)OCO4)=CC(=O)C1=O | 5.70 | 50 | 57 | 
COC1=CC([C@@H]2c3cc4c(cc3[C@@H](Nc3cncc5ccccc35)[C@H]3COC(=O)[C@@H]32)OCO4)=CC(=O)C1=O | 5.82 | 100 | 95 | 
COc1cc([C@@H]2c3cc4c(cc3[C@@H](O)[C@H]3COC(=O)[C@H]23)OCO4)cc(O)c1O |  | 100 | 50 | 
COC1=CC([C@@H]2c3cc4c(cc3[C@@H](Nc3ccc([N+](=O)[O-])cc3)[C@H]3COC(=O)[C@@H]32)OCO4)=CC(=O)C1=O | 5.89 | 10 | 128 | 
COc1cc([C@@H]2c3cc4c(cc3[C@@H](Nc3ccc(C#N)cc3)[C@H]3COC(=O)[C@H]23)OCO4)cc(O)c1O | 5.74 | 25 | 146 | 
COc1cc([C@@H]2c3cc4c(cc3[C@@H](Nc3ccccc3)[C@H]3COC(=O)[C@H]23)OCO4)cc(OC)c1O | 6.15 | 25 |  | 243
COc1cc([C@@H]2c3cc4c(cc3[C@@H](Nc3cccc([N+](=O)[O-])c3)[C@H]3COC(=O)[C@H]23)OCO4)cc(OC)c1O | 6.00 | 50 |  | 230
COC(=O)c1cccc(N[C@@H]2c3cc4c(cc3[C@@H](c3cc(O)c(O)c(OC)c3)[C@H]3C(=O)OC[C@@H]32)OCO4)c1 | 5.64 | 25 | 94 | 
COC1=CC([C@@H]2c3cc4c(cc3[C@@H](Nc3ccc(CC#N)cc3)[C@H]3COC(=O)[C@@H]32)OCO4)=CC(=O)C1=O | 5.70 | 25 | 41 | 

Compound | pIC50 (KB) | ID50 [1] [µM] | Activity [2] [%] | Activity [3] [%]
COc1cc([C@@H]2c3cc4c(cc3[C@@H](Nc3ccc(Cl)cc3)[C@H]3COC(=O)[C@H]23)OCO4)cc(OC)c1O |  | 50 |  | 99
COC1=CC([C@@H]2c3cc4c(cc3[C@@H](Nc3ccc(C(F)(F)F)cc3)[C@H]3COC(=O)[C@@H]32)OCO4)=CC(=O)C1=O | 5.19 | 25 | 51 | 
COc1cc([C@@H]2c3cc4c(cc3[C@@H](Nc3ccccc3)[C@H]3COC(=O)[C@H]23)OCO4)cc(O)c1O | 5.74 | 25 | 128 | 
COC1=CC([C@@H]2c3cc4c(cc3[C@@H](Nc3cccc(Br)c3)[C@H]3COC(=O)[C@@H]32)OCO4)=CC(=O)C1=O | 5.21 | 50 | 15 | 
COC1=CC([C@@H]2c3cc4c(cc3[C@@H](Nc3cccc([N+](=O)[O-])c3)[C@H]3COC(=O)[C@@H]32)OCO4)=CC(=O)C1=O | < 5.40 | 50 | 33 | 
COc1cc([C@@H]2c3cc4c(cc3[C@@H](Nc3ccc(Cl)cc3)[C@H]3COC(=O)[C@H]23)OCO4)cc(O)c1O | 5.70 | > 50 | 77 | 
CCOC(=O)c1ccc(N[C@@H]2c3cc4c(cc3[C@@H](C3=CC(=O)C(=O)C(OC)=C3)[C@H]3C(=O)OC[C@@H]32)OCO4)cc1 | 5.85 | 25 | 110 | 
COc1cc([C@@H]2c3cc4c(cc3[C@@H](Nc3ccc(C(C)=O)cc3)[C@H]3COC(=O)[C@H]23)OCO4)cc(O)c1O | 6.00 | 25 | 147 | 
COC1=CC([C@@H]2c3cc4c(cc3[C@@H](Nc3cccc(F)c3)[C@H]3COC(=O)[C@@H]32)OCO4)=CC(=O)C1=O | 5.80 | 100 | 37 | 
CCOC(=O)c1ccc(N[C@@H]2c3cc4c(cc3[C@@H](c3cc(OC)c(O)c(OC)c3)[C@H]3C(=O)OC[C@@H]32)OCO4)cc1 | 6.08 | 5 |  | 207
COc1cc([C@@H]2c3cc4c(cc3[C@@H](Nc3ccc(C#N)cc3)[C@H]3COC(=O)[C@H]23)OCO4)cc(OC)c1O | 6.22 |  |  | 211
COC1=CC([C@@H]2c3cc4c(cc3[C@@H](O)[C@H]3COC(=O)[C@@H]32)OCO4)=CC(=O)C1=O | 5.55 | < 5 | 41 | 
COc1cc([C@@H]2c3cc4c(cc3[C@@H](Nc3ccc([N+](=O)[O-])cc3)[C@H]3COC(=O)[C@H]23)OCO4)cc(O)c1O | 5.89 | 10 | 200 | 
COc1cc([C@@H]2c3cc4c(cc3[C@@H](Nc3cccc([N+](=O)[O-])c3)[C@H]3COC(=O)[C@H]23)OCO4)cc(O)c1O | 5.70 | 50 | 75 | 
COC1=CC([C@@H]2c3cc4c(cc3C(=O)[C@H]3COC(=O)[C@@H]32)OCO4)=CC(=O)C1=O | < 5.40 | 5 | 56 | 
COC1=CC([C@@H]2c3cc4c(cc3[C@@H](Oc3ccc(F)cc3)[C@H]3COC(=O)[C@@H]32)OCO4)=CC(=O)C1=O | 6.05 | 100 | 30 | 
COc1cc([C@@H]2c3cc4c(cc3[C@@H](O)[C@H]3COC(=O)[C@H]23)OCO4)cc(OC)c1O |  | > 100 |  | 0
COc1cc([C@@H]2c3cc4c(cc3[C@H](O)[C@H]3COC(=O)[C@H]23)OCO4)cc(OC)c1O |  | > 100 |  | 1.1
COC1=CC([C@@H]2c3cc4c(cc3[C@@H](Nc3cc(C(F)(F)F)cc(C(F)(F)F)c3)[C@H]3COC(=O)[C@@H]32)OCO4)=CC(=O)C1=O | 5.26 | > 100 | 4 | 
COc1cc([C@@H]2c3cc4c(cc3[C@@H](Nc3cc(F)cc(F)c3)[C@H]3COC(=O)[C@H]23)OCO4)cc(OC)c1O |  | 50 |  | 115
COC1=CC([C@@H]2c3cc4c(cc3[C@@H](Nc3ccc(C#N)cc3)[C@H]3COC(=O)[C@@H]32)OCO4)=CC(=O)C1=O | < 5.70 | 50 | 18 | 
COC1=CC([C@@H]2c3cc4c(cc3[C@@H](Nc3ccccc3)[C@H]3COC(=O)[C@@H]32)OCO4)=CC(=O)C1=O | < 5.70 | 25 | 32 | 
COc1cc([C@@H]2c3cc4c(cc3[C@@H](Nc3cccc(Br)c3)[C@H]3COC(=O)[C@H]23)OCO4)cc(OC)c1O |  |  |  | 62
COc1cc([C@@H]2c3cc4c(cc3[C@@H](Nc3ccc(CC#N)cc3)[C@H]3COC(=O)[C@H]23)OCO4)cc(O)c1O | 5.92 | 25 | 109 | 
COc1cc([C@@H]2c3cc4c(cc3[C@H](O)[C@H]3COC(=O)[C@H]23)OCO4)cc(O)c1O |  | 50 | 8 | 
